Bounds are passed on as bounds.

In the test the target is T1, recombinant HIV reverse transcriptase (HIV RTR) (Human immunodeficiency virus type 1 group M subtype B, UniProt P04585).
T1 construct: recombinant HIV reverse transcriptase (HIV RTR)
As to the kind of experiment: Reverse Transcriptase Assay. It is filed as biochemical. The settings on record: incorporation of [³H] dGMP into acid-precipitable cDNA, dGTP and poly r(C)·oligo d(G)12-18 at Km, 37°C for 45 minutes; read-out: IC₅₀. As to the method:
The assay measures the incorporation of tritiated deoxyguanosine monophosphate by recombinant HIV reverse transcriptase (HIV RTR) (or other RT) into acid-precipitable cDNA at the Km values of dGTP and poly r(C)·oligo d(G)₁₂₋₁₈.
Thirty uL of a reaction mixture containing equal volumes of: 500 mM Tris·HCl (pH 8.2), 300 mM MgCl₂, 1200 mM KCl, 10 mM DTT, 400 µg/mL poly r(c)·oligo d(G) [prepared by dissolving 1.5 mg (25 U) poly r(C)·oligo d(G) in 1.5 ml sterile distilled H₂O and diluting to 400 µg/ml], 0.1 µCi/µl [³H] dGTP, 160 µM dGTP, was added to 10 µl sterile distilled H₂O, 2.5 µl of potential inhibitor and 10 µL of 5 nM purified HIV RTR in tubes. The mixture was incubated at 37°C for 45 minutes.
After incubation is complete, the tubes were cooled in ice for 5 minutes. Ice-cold 13% TCA containing 10 mM NaPPi (200 µl) are added and the mixture incubated on ice for 30 minutes. The precipitated cDNA is removed by filtration using presoaked glass filters [TCA, NaPPi]. The precipitate is then washed with 1N HCl, 10 mM NaPPi.
The filter discs are then counted in a scintillation counter.
Under these conditions [dGTP] and poly r(C)·oligo d(G)₁₂₋₁₈ each are approximately equal to the appropriate Km value. […] Calculated IC₅₀ values for the lead compounds of this invention were approximately 94nM and (more than or equal to) 300 µM for L-697,914 and L-697,913, respectively. […]

As for `Cc1[nH]c(=O)c(NCc2nc3ccccc3o2)cc1C(C)O` [L-697,913, 3-[(benzoxazol-2-yl)methylamino]-5-(1-hydroxyethyl)-6-methylpyridin-2(1H)-one], the IC50 was no less than 300000 nM.
Turning to `CCc1cc(NCc2nc3ccccc3o2)c(=O)[nH]c1CO` [L-697,914, 3-[(benzoxazol-2-yl)methylamino]-5-ethyl-6-hydroxymethylpyridin-2(1H)-one], the IC50 was roughly 94 nM.

The record behind these values is patent EP0481802A1, “Hydroxylated inhibitors of HIV reverse transcriptase” (MERCK & CO. INC., priority 1990, dated 1992).
